Where two headings read alike, the source gives them in different places. Values belong to the molecule of their own block, whether it stands above or below them.
Experiments:
[1] = biological target: LDLR (Low-density lipoprotein receptor) (Homo sapiens, UniProt P01130); assay: LiP-Quant, membrane enriched HeLa eluate
Description: (§3) HeLa cells were lysed as above (lysate) however 0.3% n-dodecyl-β-D-maltoside (DDM) was added prior to lysis. […] Beads were then centrifuged at 300g for 30 s to pellet and the supernatant was aspirated. Beads were then washed six times (300g, 30 s between washes) and finally eluted in 400 µl of 0.5 M N-acetyl glucosamine (in LiP buffer without detergent) at 4 °C for 30 min. Beads were pelleted at 300g for 30 s and eluate was collected and protein was quantified by BCA test. LiP-Quant assay was performed with membrane enriched eluate in the same manner as described for standard HeLa lysate.

[2] = biological target: T1, RBM27 (RNA-binding protein 27) (Homo sapiens, UniProt Q9P2N5); assay: LiP-Quant, membrane enriched HeLa eluate
T1 sequence (Q9P2N5 1-1060): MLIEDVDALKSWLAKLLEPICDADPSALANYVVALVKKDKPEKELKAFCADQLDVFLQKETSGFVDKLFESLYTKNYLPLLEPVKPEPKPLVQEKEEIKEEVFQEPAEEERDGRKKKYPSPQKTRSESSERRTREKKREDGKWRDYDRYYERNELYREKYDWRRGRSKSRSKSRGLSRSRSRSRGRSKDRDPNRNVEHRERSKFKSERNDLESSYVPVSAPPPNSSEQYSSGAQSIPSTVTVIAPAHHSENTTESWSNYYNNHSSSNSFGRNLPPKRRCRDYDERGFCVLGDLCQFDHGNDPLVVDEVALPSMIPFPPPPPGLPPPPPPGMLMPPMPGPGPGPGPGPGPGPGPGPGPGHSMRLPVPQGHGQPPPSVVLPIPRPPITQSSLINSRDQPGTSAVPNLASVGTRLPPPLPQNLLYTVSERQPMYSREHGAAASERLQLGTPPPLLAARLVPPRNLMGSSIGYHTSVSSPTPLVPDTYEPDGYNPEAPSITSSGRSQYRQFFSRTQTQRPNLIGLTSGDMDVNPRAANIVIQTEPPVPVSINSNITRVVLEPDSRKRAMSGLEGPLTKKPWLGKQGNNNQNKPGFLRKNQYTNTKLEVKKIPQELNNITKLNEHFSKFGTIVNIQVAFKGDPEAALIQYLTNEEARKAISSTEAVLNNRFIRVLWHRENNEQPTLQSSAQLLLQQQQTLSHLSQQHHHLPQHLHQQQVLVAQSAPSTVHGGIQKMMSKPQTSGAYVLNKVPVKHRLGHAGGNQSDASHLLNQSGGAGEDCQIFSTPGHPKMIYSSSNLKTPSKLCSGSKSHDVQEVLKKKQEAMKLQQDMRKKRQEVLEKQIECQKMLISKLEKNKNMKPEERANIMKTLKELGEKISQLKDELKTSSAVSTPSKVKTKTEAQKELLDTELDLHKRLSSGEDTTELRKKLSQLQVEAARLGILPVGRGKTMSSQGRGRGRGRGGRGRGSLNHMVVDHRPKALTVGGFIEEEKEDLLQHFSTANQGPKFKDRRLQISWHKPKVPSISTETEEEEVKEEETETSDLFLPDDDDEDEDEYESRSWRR
Description: as §3

[3] = biological target: MYH9 (Myosin-9) (Homo sapiens, UniProt P35579); assay: LiP-Quant, membrane enriched HeLa eluate
Chain of MYH9 (Myosin-9) (P35579 whole entry): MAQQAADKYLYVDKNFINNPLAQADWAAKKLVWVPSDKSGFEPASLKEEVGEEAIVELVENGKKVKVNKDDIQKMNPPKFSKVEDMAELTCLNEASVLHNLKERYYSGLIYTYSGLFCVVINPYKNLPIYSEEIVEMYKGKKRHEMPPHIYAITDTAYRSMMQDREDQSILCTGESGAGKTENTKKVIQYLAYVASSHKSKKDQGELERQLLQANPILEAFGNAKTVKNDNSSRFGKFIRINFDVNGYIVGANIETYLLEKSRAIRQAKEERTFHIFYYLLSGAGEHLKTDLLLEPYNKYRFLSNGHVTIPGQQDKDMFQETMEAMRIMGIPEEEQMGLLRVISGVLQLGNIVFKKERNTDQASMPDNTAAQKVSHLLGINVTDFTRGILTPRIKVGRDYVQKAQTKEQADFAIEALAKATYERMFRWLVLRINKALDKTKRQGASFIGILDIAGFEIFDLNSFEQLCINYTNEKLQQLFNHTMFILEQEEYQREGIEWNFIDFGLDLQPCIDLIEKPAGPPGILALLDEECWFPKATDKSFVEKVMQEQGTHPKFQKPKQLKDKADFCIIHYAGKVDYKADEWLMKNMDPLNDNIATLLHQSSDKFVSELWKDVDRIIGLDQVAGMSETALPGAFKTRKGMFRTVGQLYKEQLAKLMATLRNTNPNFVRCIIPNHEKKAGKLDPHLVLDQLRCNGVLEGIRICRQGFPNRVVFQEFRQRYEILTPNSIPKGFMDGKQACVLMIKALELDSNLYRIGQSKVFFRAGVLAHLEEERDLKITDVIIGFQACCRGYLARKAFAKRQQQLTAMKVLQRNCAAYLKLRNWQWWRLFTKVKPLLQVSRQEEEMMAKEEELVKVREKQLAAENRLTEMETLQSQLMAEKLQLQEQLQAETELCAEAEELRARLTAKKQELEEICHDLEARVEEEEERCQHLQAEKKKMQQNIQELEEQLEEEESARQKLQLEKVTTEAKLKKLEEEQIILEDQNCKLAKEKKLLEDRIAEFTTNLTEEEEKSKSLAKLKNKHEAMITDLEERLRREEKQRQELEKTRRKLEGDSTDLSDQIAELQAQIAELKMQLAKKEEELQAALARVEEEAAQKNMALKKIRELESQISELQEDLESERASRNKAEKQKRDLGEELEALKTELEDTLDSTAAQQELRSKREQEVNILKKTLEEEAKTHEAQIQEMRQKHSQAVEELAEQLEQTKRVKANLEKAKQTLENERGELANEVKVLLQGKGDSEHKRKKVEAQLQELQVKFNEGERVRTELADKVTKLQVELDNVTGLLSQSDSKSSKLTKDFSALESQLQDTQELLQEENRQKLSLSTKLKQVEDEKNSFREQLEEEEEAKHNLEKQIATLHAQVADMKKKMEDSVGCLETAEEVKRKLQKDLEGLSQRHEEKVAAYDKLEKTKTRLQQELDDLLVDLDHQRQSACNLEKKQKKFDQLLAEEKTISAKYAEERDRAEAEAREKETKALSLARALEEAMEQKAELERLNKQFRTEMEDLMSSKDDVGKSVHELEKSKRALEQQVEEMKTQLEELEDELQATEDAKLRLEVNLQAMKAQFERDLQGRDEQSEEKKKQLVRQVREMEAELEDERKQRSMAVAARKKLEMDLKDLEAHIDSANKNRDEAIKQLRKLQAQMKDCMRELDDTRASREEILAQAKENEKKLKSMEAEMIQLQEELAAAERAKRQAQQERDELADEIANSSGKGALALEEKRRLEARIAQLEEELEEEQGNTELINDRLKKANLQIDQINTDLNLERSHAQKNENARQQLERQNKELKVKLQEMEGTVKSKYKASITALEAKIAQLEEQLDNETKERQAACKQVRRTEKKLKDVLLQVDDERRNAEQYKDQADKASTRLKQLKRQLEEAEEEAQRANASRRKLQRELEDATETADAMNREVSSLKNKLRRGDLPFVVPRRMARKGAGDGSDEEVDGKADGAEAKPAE
Description: as §3

[4] = biological target: ATP1A1 (Sodium/potassium-transporting ATPase subunit alpha-1) (Homo sapiens, UniProt P05023); assay: LiP-Quant, membrane enriched HeLa eluate
Description: as §3

[5] = biological target: T2, ARI1 (Saccharomyces cerevisiae, UniProt P53111); assay: LiP-Quant, S. cerevisiae lysates; assay type: binding; conditions: wild type yeast lysate
T2 construct: Cell lysates from at least three independent biological replicates were aliquoted in equivalent volumes containing 100 µg of proteome sample; endogenous in cells; host or cells: S. cerevisiae (Euroscarf strains), cryo-milled lysate
Description: (§1) To discriminate between these two cases, the same LiP-Quant experiment was performed with lysates where TOR signaling was impaired via a mutation in the tor1 gene and a deletion of the fpr1 gene (tor1-1 Δfpr1)[20].
(§2) Saccharomyces cerevisiae: Cell lysates from at least three independent biological replicates were aliquoted in equivalent volumes containing 100 µg of proteome sample and incubated for 10 min at 25 °C with the drug of interest. […] Samples were then heated again at 98 °C for 3 min in a thermocycler. These samples were then subjected to complete digestion in denaturing conditions as described below.

[6] = biological target: T3, SYEC (Saccharomyces cerevisiae, UniProt P46655); assay: LiP-Quant, S. cerevisiae lysates; assay type: binding; conditions: wild type yeast lysate
T3 construct: Cell lysates from at least three independent biological replicates were aliquoted in equivalent volumes containing 100 µg of proteome sample; endogenous in cells; host or cells: S. cerevisiae (Euroscarf strains), cryo-milled lysate
Description: as §1, §2

[7] = biological target: T4, FPR1 (FK506-binding protein 1, P20081) (Saccharomyces cerevisiae, UniProt P20081); assay: LiP-Quant, S. cerevisiae lysates (wild type); conditions: Yeast WT; for EC50: EC50 (nM)
T4 construct: Cell lysates from at least three independent biological replicates were aliquoted in equivalent volumes containing 100 µg of proteome sample; endogenous in cells; host or cells: S. cerevisiae wild type (Euroscarf), cryo-milled lysate
T4 sequence (P20081 1-114): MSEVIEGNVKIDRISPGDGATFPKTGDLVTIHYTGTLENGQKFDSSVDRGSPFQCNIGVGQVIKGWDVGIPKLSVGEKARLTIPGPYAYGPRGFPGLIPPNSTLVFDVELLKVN

[8] = biological target: PPP1CA (Homo sapiens, UniProt P62136); assay: LiP-Quant, HeLa lysate; assay type: binding; conditions: peptide […]
Chain of PPP1CA (P62136 whole entry): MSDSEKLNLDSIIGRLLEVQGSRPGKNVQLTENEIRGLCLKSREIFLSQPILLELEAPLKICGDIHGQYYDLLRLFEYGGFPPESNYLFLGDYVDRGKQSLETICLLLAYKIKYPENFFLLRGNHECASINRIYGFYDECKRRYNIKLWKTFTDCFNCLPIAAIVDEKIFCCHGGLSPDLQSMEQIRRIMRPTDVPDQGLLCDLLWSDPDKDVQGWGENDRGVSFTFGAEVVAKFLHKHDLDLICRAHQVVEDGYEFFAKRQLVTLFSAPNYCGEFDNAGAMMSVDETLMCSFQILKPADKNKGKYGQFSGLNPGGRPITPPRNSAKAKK

[9] = test system: PP2A and PP1; conditions: cited from earlier work
[10] = biological target: PPP3CA (Homo sapiens, UniProt Q08209); assay: LiP-Quant, HeLa lysate; assay type: binding; conditions: peptide SDDELGSEEDGFDGATAAAR
Chain of PPP3CA (P63098 2-170, other chains not shown): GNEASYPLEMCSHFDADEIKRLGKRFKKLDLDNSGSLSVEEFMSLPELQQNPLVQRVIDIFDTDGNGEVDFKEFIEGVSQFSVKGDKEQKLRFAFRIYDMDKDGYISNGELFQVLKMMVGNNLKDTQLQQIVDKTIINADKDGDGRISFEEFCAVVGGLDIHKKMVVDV

[11] = test system: PP1; assay: LiP-Quant, HeLa lysate; assay type: binding, human; conditions: 16 peptides, read-out: median EC50 across LiP-Quant peptides
Source text: Next, we focused on kinases and phosphatases as drug targets of particular pharmacological interest, given their frequent dysregulation in disease, particularly in cancer. One common issue with these classes of targets is their variable selectivity, as some of these drugs have more than one protein target in the cell, and frequently bind them with different affinities, thus it is important to characterize these subtle differences to determine the specific modes of actions.

[12] = test system: PP2A/B (PPP2CA;PPP2CB); assay: LiP-Quant, HeLa lysate; assay type: binding, human
[13] = biological target: MAPK2K1 (MAP2K1) (Homo sapiens, UniProt Q02750); assay: LiP-Quant, HeLa lysate; assay type: binding
Chain of MAPK2K1 (MAP2K1) (Q02750 whole entry): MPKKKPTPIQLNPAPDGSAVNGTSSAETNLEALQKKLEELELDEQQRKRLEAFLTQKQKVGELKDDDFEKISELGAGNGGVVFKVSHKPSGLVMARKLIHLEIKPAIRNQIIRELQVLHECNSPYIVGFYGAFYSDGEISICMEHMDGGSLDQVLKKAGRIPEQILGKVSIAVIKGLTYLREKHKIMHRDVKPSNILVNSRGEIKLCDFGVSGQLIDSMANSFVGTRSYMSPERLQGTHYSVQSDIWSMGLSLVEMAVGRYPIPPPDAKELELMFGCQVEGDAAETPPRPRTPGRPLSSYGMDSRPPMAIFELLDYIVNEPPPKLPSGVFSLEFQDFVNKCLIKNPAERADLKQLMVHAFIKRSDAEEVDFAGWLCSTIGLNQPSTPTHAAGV

[14] = biological target: PLEC (Plectin) (Homo sapiens, UniProt Q15149); assay: LiP-Quant, HeLa lysate; assay type: binding; conditions: peptide QRAEAER
[15] = biological target: T5, NQO2 (Homo sapiens, UniProt P16083); assay: LiP-Quant, HeLa lysate; assay type: binding; conditions: peptide EEPIPCTAHWHFGQ
T5 sequence (P16083 1-231): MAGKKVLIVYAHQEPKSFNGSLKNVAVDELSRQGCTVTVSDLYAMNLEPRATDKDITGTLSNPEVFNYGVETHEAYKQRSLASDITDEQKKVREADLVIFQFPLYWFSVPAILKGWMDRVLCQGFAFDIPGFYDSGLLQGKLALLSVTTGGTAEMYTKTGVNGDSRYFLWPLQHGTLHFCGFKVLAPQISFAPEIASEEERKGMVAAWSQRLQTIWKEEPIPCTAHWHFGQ

[16] = test system: MAPK2K1; set-up: method as in PMID 29191878; conditions: read-out: EC50 measured with alternative methods; cited from earlier work
[17] = biological target: T6, LIN7C (Homo sapiens, UniProt Q9NUP9); assay: LiP-Quant, HeLa lysate; assay type: binding; conditions: peptide AASEGHSHPR
T6 sequence (Q9NUP9 1-197): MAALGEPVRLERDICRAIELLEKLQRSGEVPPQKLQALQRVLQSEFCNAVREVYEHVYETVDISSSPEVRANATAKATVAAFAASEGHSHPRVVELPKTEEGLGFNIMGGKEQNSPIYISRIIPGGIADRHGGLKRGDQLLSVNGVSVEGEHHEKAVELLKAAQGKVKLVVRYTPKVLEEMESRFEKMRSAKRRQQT

[18] = biological target: XPO1 (Exportin-1) (Homo sapiens, UniProt O14980); assay: LiP-Quant, HeLa lysate; assay type: binding; conditions: peptide NQCEGIKK
Chain of XPO1 (Exportin-1) (O14980 whole entry): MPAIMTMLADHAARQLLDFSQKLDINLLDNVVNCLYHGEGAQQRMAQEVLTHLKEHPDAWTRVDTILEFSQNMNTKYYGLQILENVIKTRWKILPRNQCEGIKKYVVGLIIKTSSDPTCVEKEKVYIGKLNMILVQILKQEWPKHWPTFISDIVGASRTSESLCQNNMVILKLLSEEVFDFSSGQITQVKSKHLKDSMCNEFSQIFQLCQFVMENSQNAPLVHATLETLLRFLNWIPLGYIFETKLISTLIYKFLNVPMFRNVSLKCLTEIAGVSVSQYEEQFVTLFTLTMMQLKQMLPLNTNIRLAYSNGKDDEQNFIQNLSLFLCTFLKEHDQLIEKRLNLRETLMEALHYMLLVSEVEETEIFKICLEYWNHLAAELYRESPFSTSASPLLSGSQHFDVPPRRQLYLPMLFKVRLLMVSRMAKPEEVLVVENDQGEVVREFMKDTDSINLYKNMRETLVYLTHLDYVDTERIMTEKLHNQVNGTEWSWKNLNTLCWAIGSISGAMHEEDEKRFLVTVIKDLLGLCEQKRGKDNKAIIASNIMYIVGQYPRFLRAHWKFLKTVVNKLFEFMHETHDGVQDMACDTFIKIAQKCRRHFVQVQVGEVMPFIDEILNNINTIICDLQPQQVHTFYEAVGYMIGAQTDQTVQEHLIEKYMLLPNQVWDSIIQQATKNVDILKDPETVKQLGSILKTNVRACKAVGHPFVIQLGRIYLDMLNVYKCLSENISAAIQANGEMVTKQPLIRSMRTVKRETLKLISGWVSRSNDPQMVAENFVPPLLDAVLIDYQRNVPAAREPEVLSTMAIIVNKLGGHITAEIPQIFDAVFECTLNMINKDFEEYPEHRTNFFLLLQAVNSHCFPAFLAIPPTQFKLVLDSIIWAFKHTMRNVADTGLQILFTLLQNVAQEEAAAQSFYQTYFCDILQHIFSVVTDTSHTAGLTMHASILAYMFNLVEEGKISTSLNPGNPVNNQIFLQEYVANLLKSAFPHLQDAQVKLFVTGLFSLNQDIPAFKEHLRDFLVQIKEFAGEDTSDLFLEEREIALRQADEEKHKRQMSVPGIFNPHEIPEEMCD

[19] = biological target: FKBP1A (Homo sapiens, UniProt P62942)
Chain of FKBP1A (P62942 whole entry): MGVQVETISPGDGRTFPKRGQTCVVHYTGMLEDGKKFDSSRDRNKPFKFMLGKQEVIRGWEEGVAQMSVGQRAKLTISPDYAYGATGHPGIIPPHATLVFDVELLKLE

[20] = FKBP1A peptide LVFDVELLK, Decreasing
[21] = FKBP1A peptide VFDVELLK, Decreasing
[22] = FKBP1A peptide YTGMLEDGK, Decreasing

Chain of LDLR (Low-density lipoprotein receptor) (P01130 22-860): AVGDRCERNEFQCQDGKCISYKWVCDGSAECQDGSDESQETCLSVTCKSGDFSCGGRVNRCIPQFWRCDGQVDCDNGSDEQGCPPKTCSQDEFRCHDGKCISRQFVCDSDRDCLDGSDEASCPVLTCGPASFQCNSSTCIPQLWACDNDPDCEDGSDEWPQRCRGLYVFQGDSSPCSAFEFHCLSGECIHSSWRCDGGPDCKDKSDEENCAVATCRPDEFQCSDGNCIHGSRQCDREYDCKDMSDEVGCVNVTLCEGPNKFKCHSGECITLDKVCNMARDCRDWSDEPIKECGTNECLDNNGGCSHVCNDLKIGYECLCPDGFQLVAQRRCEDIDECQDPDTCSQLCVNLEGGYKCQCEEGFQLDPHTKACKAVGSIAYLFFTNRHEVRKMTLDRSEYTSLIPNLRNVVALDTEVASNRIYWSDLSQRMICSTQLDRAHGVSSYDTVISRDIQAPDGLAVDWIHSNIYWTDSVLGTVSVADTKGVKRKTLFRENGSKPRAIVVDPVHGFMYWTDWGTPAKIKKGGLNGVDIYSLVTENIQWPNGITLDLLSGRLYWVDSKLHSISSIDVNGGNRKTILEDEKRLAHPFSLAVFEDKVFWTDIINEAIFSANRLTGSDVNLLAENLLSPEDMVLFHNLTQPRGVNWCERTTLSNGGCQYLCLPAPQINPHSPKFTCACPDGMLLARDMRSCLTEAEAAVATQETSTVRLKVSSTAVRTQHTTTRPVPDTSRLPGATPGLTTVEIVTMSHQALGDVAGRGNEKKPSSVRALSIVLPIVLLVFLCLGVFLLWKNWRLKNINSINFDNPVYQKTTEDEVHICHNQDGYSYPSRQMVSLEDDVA

Compound: C[C@@H]1O[C@@H](O[C@@H]2C=C3CC[C@@H]4[C@H](CC[C@]5(C)[C@@H](c6ccc(=O)oc6)CC[C@]45O)[C@@]3(C)CC2)[C@H](O)[C@H](O)[C@H]1O [proscillaridin A]
EC50 [1]: 0.0273 µM
DRC ([1]; peptide TILEDEKR): 0.9716
LiP Rank ([1]; peptide TILEDEKR): 2
LiP Score ([1]; peptide TILEDEKR): 4.346
EC50 [2]: 0.0173 µM
DRC ([2]; peptide LSSGEDTTELR): 0.9721
LiP Rank ([2]; peptide LSSGEDTTELR): 3
LiP Score ([2]; peptide LSSGEDTTELR): 4.331
EC50 [3]: 0.031 µM
DRC ([3]; peptide HSQAVEELAEQLEQTKR): 0.9583
LiP Rank ([3]; peptide HSQAVEELAEQLEQTKR): 4
LiP Score ([3]; peptide HSQAVEELAEQLEQTKR): 4.317
EC50 [4]: 0.0164 µM
DRC ([4]; peptide AVAGDASESALLK): 0.9716
LiP Rank ([4]; peptide AVAGDASESALLK): 1
LiP Score ([4]; peptide AVAGDASESALLK): 4.437

Compound: CO[C@H]1C[C@@H]2CC[C@@H](C)[C@@](O)(O2)C(=O)C(=O)N2CCCC[C@H]2C(=O)O[C@H]([C@H](C)C[C@@H]2CC[C@@H](O)[C@H](OC)C2)CC(=O)[C@H](C)/C=C(\C)[C@@H](O)[C@@H](OC)C(=O)[C@H](C)C[C@H](C)/C=C/C=C/C=C/1C [Rapamycin]
LiP-Quant score [5]: > 2.5
LiP-Quant score [6]: > 2.5
EC50 ([7]; FPR1 peptide _GWDVGIPK_): 144 nM
EC50 ([7]; FPR1 peptide _TGDLVTIH_): 619 nM
LiP Rank ([7]; FPR1 peptide _GSPFQCNIGVGQVIK_): 1
LiP Score ([7]; FPR1 peptide _GSPFQCNIGVGQVIK_): 3.228
LiP Rank ([7]; FPR1 peptide _GWDVGIPK_): 2
LiP Score ([7]; FPR1 peptide _GWDVGIPK_): 3.111
LiP Rank ([7]; FPR1 peptide _RISPGDGATFPK_): 4
LiP Score ([7]; FPR1 peptide _RISPGDGATFPK_): 2.974
LiP Rank ([7]; FPR1 peptide _TGDLVTIH_): 3

Compound: COC[C@@H]([C@H](O)[C@H](O)C(=O)NCC[C@H](C)c1nc(/C=C/C[C@@H]2O[C@]3(C[C@@H](O)[C@@H]2C)O[C@H]([C@H](C[C@H](O)[C@H](C)[C@H](O)[C@H](C)/C=C(C)/C(C)=C/C=C/C(C)=C\C#N)OC)[C@H](OP(=O)(O)O)C3(C)C)co1)N(C)C [Calyculin A]
LiP Rank [8]: 196
LiP Score [8]: 1.364
EC50 ratio difference between PP2A and PP1 [9]: 3.5 fold
LiP Rank [10]: 2187
LiP Score [10]: 0.782
EC50 [11]: 0.063 µM
EC50 ([12]; HeLa lysate, 12 peptides, read-out: median EC50 across LiP-Quant peptides): 0.018 µM
LiP Score ([12]; peptide AHQLVMEGYNWCHDR, PPP2CA): 4.613
EC50 ([12]; peptide AHQLVMEGYNWCHDR, PPP2CA, read-out: EC50): 0.0114 µM
LiP Score ([12]; peptide NVVTIFSAPNYCYR, PPP2CA): 4.820
EC50 ([12]; peptide NVVTIFSAPNYCYR, PPP2CA, read-out: EC50): 0.0193 µM
LiP Score ([12]; peptide YSFLQFDPAPR, PPP2CA): 5.385
EC50 ([12]; peptide YSFLQFDPAPR, PPP2CA, read-out: EC50): 0.0182 µM

LIPscore ([13]; peptide VSIAVIK (selumetinib sheet) or best peptide of the protein (Supp Data 7)): 2.617
LIPRank ([13]; peptide VSIAVIK (selumetinib sheet) or protein level (Supp Data 7)): 3
DRC ([14]; dose-response correlation): 0.9991
LIPRank [14]: 1
LIPscore [14]: 3.316
DRC ([15]; dose-response correlation): 0.9666
LIPRank [15]: 2
LIPscore [15]: 3.07
DRC ([17]; dose-response correlation): 0.9974
LIPRank [17]: 4
LIPscore [17]: 2.585
DRC ([18]; dose-response correlation): 0.9996
LIPRank [18]: 5
LIPscore [18]: 2.504
Compound: Cn1cnc2c(F)c(Nc3ccc(Br)cc3Cl)c(C(=O)NOCCO)cc21 [Selumetinib]
EC50 [16]: 0.041 µM

Compound: C=CC[C@@H]1/C=C(\C)C[C@H](C)C[C@H](OC)[C@H]2O[C@@](O)(C(=O)C(=O)N3CCCC[C@H]3C(=O)O[C@H](/C(C)=C/[C@@H]3CC[C@@H](O)[C@H](OC)C3)[C@H](C)[C@@H](O)CC1=O)[C@H](C)C[C@@H]2OC [FK506]
LiP Rank [19, 20]: 8
Score [19, 20]: 1.86
LiP Rank [19, 21]: 10
Score [19, 21]: 1.73
LiP Rank [19, 22]: 4
Score [19, 22]: 3.01
LiP Rank ([19]; FKBP1A peptide […], Decreasing): 11
Score ([19]; FKBP1A peptide […], Decreasing): 1.72
Score ([19]; FKBP1A peptide […], Increasing): 3.49
Score ([19]; FKBP1A peptide […], Increasing, Supplementary Data 4): 3.820

— PMC7442650, “A machine learning-based chemoproteomic approach to identify drug targets and binding sites in complex proteomes” (Nature Communications, 2020)
